The results in this text go back to US20230127559A1, “PEPTIDE ANALOGS AND USE OF SAME IN TREATING DISEASES, DISORDERS OR CONDITIONS ASSOCIATED WITH MUTANT P53 PROTEIN” (YEDA RESEARCH AND DEVELOPMENT CO. LTD., priority 2020, published 2023).

Where a SMILES comes first, the peptide text is derived from it. [ ]: non-standard residue; d: D form. The star is where a group is joined. Myristoyl = CCCCCCCCCCCCCC(=O)*; Dab = NCC[C@H](N)C(=O)O

Data set [1] deals with panel of cell lines expressing mutp53. It counts as cell-based. As to the method:
(§1) Cells were cultured in 96 wells plates with 2500-4000 cells/well. Serial dilutions of different peptides were added and the plates incubated for additional 48 h at 37° C. Then medium was removed and cell viability was determined by staining the cells with crystal violet (0.05%) in methanol/PBS (1:5, v/v), for 10 min, followed by 3 washes with PBS. 10% acetic acid was added to each well for 10 min. OD was determined at 595 nm.
The IC50 tables presented in FIGS. 17-20 are from several representative experiments performed on cell lines expressing several p53 hotspot mutations, as well as control non-transformed cells:
Proline residue position—Based on alanine scanning and molecular dynamics analyses, it is believed that the proline residue at the 6th position from the N-terminal is critical for the peptide's 3D structure and provides some rigidity required for peptide binding and activity. Therefore, it was hypothesized that a change in orientation or tetrahedral angle might increase the affinity of the peptide for p53. Six new peptides were synthesized replacing this proline residue with proline analogs (pCAPs 708-712, and pCAP-716, SEQ ID NOS: 6-10 and 14, respectively). This set of peptides was tested for activity on a panel of cell lines expressing mutp53, and compared it to pCAP-674 (SEQ ID NO: 27) and to the scrambled sequence peptides pCAP-721 (SEQ ID NO: 19) and pCAP-722 (SEQ ID NO: 20).

For data set [2], the system named is PANC1 (pancreatic carcinoma) cells, p53R273H. The data set is classed as cell-based. The settings on record: 48 h. On the procedure: as §1
(§2) The IC50 tables presented in FIGS. 17-20 are from several representative experiments performed on cell lines expressing several p53 hotspot mutations, as well as control non-transformed cells: […]

The subject of data set [3] is MIA PaCa-2 (pancreatic carcinoma) cells, p53R248W. It counts as cell-based. The settings on record: 48 h. On the procedure: as §1, §2
Data set [4] has as its system WI38 (non-transformed fibroblasts) cells, wtp53. It counts as cell-based. The following applies: 48 h. On the procedure: as §1, §2
The nature of data set [5]: Solubility at physiological pH. The data set is classed as physicochemical.

Broadly, the IC50 is the concentration that inhibits the measured activity by half. As for `CCCCCCCCCCCCCC(=O)N[C@@H](CCCNC(=N)N)C(=O)N[C@@H](CCCNC(=N)N)C(=O)N[C@@H](Cc1c[nH]cn1)C(=O)N[C@@H](CO)C(=O)N[C@@H](C(=O)N1CCC[C@H]1C(=O)N[C@@H](CCN)C(=O)N1CCC[C@H]1C(=O)N[C@@H](CC(=O)O)C(=O)O)C(C)C` [pCAP-553, myr-RRHSvP(L-Dab)PD] (Myristoyl-RRHS[dV]P[Dab]PD-OH; C-terminus assumed), the “activity in viability assays compared with other peptides (in words)” value in data set [1] is listed as “improved efficacy relatively to pCAP-250”. The figures for the IC50 in data set [2], in data set [3] and in data set [4] were 2100 nM, 1200 nM and greater than 40000 nM, respectively. In addition, the “solubility (in words)” value in data set [5] was “better solubility at physiological pH”.
